Reference: patent publication US10988444B2, “Antimicrobial compounds” (NEWSOUTH INNOVATIONS PTY LIMITED, priority 2016, dated 2021)
Read-outs that look alike come from different tables or passages of the source.

Assays:
S. aureus biofilms = experiment: Confocal microscopy of established biofilms, Live/dead stain; format: cell-based; settings: 250 μM
S. marcescens = experiment: Biofilm disruption assay, established biofilms, crystal violet staining; format: cell-based, Serratia marcescens; settings: 250 μM, 24 h treatment
Method: (§1) Bacterial cultures were grown in TSB media for overnight at 37° C. with shaking at 150 r.p.m. Cultures were diluted (1:20) in YPD medium and 200 μl aliquots were dispensed to flat bottom 96-well plate wells (Sarstedt Australia). Cultures were supplemented with varying concentrations of synthetic compounds dissolved in water. For pre-established biofilm assay, cultures were grown in 96-well plate wells overnight prior to supplementation with synthetic compounds. Control cultures were supplemented with an equal amount of DMSO. Plates were sealed with self-adhesive microplate sealers (TopSeal-A, PerkinElmer) to allow air diffusion and to prevent condensation. Cultures were incubated overnight at 37° C. with shaking at 150 r.p.m. Biofilms adhered on polystyrene substratum were quantified by crystal violet staining as described previously (see Wiegand, I.; Hilpert, K.; Hancock, R. E. W. Nat. Protocols 2008, 3 (2), 163-175). All cultures were prepared in triplicates. Error bars represent the standard error of three independent experiments (n=3).
(§2) The biofilm disruption activities of the compounds were investigated using crystal violet staining according to a previously published protocol (G. A. O'Toole, J Vis Exp, 2011, (47), pii: 2437, DOI: 10.3791/2437, 2437). The ability of compounds (34-38, 51-56, 61, 62, 65 and 66) to disrupt the established biofilms of the Gram-positive bacteria S. aureus and the Gram-negative bacteria Pseudomonas aeruginosa, Serratia marcescens and E. coli, was determined at a concentration of 250 μM. In this assay, bacterial cultures were grown on a polystyrene substratum overnight prior to treatment with the compounds. In addition, the ability of these compounds to inhibit the formation of biofilms of P. aeruginosa and S. marcescens was also investigated at 250 μM, whereby the bacterial cultures were grown in the presence of test compounds.

E. coli [1] = experiment: as above; format: cell-based; settings: 250 μM, 24 h treatment
Method: as §1, §2

[2] = system: Pseudomonas aeruginosa (PAO1); experiment: as above; format: cell-based; settings: 250 μM, 24 h treatment
Method: as §1, §2

S. aureus [3] = experiment: as above; format: cell-based; settings: 250 μM, 24 h treatment
Method: as §1, §2

E. coli [4] = experiment: Minimal inhibitory concentration (MIC) determination, Example 1; format: cell-based; settings: Escherichia coli, 24 h, MHB, 37° C., read-out: Minimum inhibitory concentration (MIC) E. coli
Method: (§3) The antibacterial activity of the compounds was determined by the determination of minimal inhibitory concentration (MIC) by following the previously published protocol (see Nizalapur, S.; Ho, K. K.; Kimyon, Ö.; Yee, E.; Berry, T.; Manefield, M.; Cranfield, C. G.; Willcox, M.; Black, D. S.; Kumar, N. Org. Biomol. Chem. 2016, 14, 3623). The compounds to be tested were dissolved and diluted in autoclaved Millipore water. A single colony of bacteria was cultured overnight in TSB at 37° C. The resulting bacteria were collected by centrifugation and re-suspended in the same volume of MHB twice. Optical density (OD) of the resulting culture was adjusted to 0.1 at 600 nm (10^8 CFU/mL) in MHB, and the adjusted culture was further diluted to […] in MHB. Then, 100 μL of the bacterial solution was added to wells of a 96-well plate containing 100 μL of serially diluted compound. Two controls were also prepared: one containing 100 μL of MHB media and 100 μL sterile water, and the other containing 100 μL of bacterial solution and 100 μL sterile water. […] The MIC value was determined as the lowest concentration of compound that inhibited the complete growth of the bacteria (i.e. OD similar to that of the control having no bacteria). Each experiment was performed in triplicate and was repeated in three independent experiments.
(§4) The results of the MIC assay are given below in Table 1.

S. aureus [5] = experiment: as above; format: cell-based; settings: Staphylococcus aureus
Method: as §3, §4

S. marcescens biofilms = experiment: Confocal microscopy of non-established biofilms, Live/dead stain; format: cell-based, Serratia marcescens; settings: 250 μM
Method: S. aureus and Serratia marcescens biofilms were grown by adding 1.5 ml of bacterial cells (OD600 nm˜0.600) suspended in fresh TSB medium into 35×10 mm polystyrene petri dishes and incubated over 24 h at 37° C. in a shaking incubator at 120 r.p.m. Cultures were supplemented with varying concentrations of synthetic compounds dissolved in water. Control cultures were supplemented with an equal amount of water. After 24 h, the biofilm growth medium was discarded and the biofilms were gently rinsed 3 times with PBS (pH: 7.0) in order to remove any planktonic bacterial cells. The remaining substratum adhered biofilms were then stained with Live/dead stain (Invitrogen, Oregon, USA) for 20 mins in the dark and then subjected to confocal microscopy. Stained biofilms were visualized with FV 1200 Confocal microscope.

[6] = system: MRC-5 normal human lung fibroblasts; experiment: Toxicity assay, Alamar blue, Example 1; format: cell-based; settings: 72 h incubation
Method: The normal human lung fibroblasts MRC-5 were cultured in minimal essential medium (MEM, Invitrogen) supplemented with 10% foetal calf serum (FCS), 1% L-glutamine-penicillin-streptomycin, 2% sodium bicarbonate, 1% non-essential amino acids (NEAA) and 1% sodium pyruvate. The cell line was maintained at 37° C. in 5% CO2 as an adherent monolayer and was passaged upon reaching confluence by standard cell culture techniques. MRC-5 cells were seeded at 2×10^4 cells per well in 96-well plates to ensure full confluence (quiescence). Cells were treated 24 h after seeding with 0.1 to 1000 μM of compounds. After 72 h drug incubation, the treated media was replaced with fresh media containing 10% Alamar blue and the cells were incubated for another 6 h. The metabolic activity was detected by spectrophotometric analysis by assessing the absorbance of Alamar blue as previously described by Pasquier et. al (see Pasquier, E.; Ciccolini, J.; Carre, M.; Giacometti, S.; Fanciullino, R.; Pouchy, C.; Montero, M.-P.; Serdjebi, C.; Kavallaris, M.; André, N. Oncotarget 2011, 2, 797).
Cell proliferation was determined and expressed as a percentage of untreated control cells. The determination of IC50 values was performed using GraphPad Prism 6 (San Diego, Calif., USA).
To further evaluate the utility of these novel guanylated peptidomimetics for medical applications, it was essential to determine their specificity towards bacterial cells over mammalian cells.

[7] = system: Pseudomonas aeruginosa (PAO1); experiment: Biofilm inhibition assay (inhibition of biofilm formation), crystal violet staining; format: cell-based; settings: 24 h, read-out: inhibition of biofilm formation by P. aeruginosa
Method: as §1, with “no-established” for “pre-established”, “along” for “prior to supplementation”, “water.” for “DMSO.”
as §2

S. aureus (SA38) = settings: Literature value; cited from earlier work
[8] = MHB, 37° C., 24 h, read-out: Minimum inhibitory concentration (MIC) S. aureus

Molecule | confocal microscopy, effect on pre-established S. aureus biofilm (S. aureus biofilms) | disruption of established biofilms of S. marcescens (S. marcescens) [%] | disruption of established biofilms of E. coli (E. coli [1]) [%] | disruption of established biofilms of P. aeruginosa [2] [%] | disruption of established biofilms of S. aureus (S. aureus [3]) [%] | MIC (E. coli [4]) [µg/mL] | MIC (S. aureus [5]; [8]) [µg/mL] | confocal microscopy, effect on S. marcescens biofilm formation (S. marcescens biofilms) | toxicity (IC50) against MRC-5 human fibroblast cells [6] | inhibition at 250 µM [7] [%] | MIC (S. aureus [5]; MIC in μM as compared with MRC-5 IC50, read-out: equivalent MIC values) [µM] | MIC (S. aureus (SA38)) [µM]
COC(=O)C(CCCN)NC(=O)C(CCCCN)NC(=O)C(=O)c1cc(Br)ccc1NC(=O)c1ccc2ccccc2c1.Cl.Cl (stereo not drawn) [Compound 62, Methyl 2-(2-(2-(2-(2-naphthamido)-5-bromophenyl)-2-oxoacetamido)-6-aminohexanamido)-5-aminopentanoate dihydrochloride] | disrupted the pre-established biofilm significantly | 49 | 42 | 46 | 61 | 21 | 23 |  |  |  |  | 
COC(=O)[C@H](CCCNC(=N)N)NC(=O)[C@H](CCCNC(=N)N)NC(=O)C(=O)c1ccccc1NC(=O)c1ccc2ccccc2c1.Cl.Cl [Compound 65, Methyl (2-(2-(2-naphthamido)phenyl)-2-oxoacetyl)arginylargininate dihydrochloride] |  | 60 |  |  |  | 90 | 18 | inhibited biofilm formation | not reaching a 50% reduction of cell viability at the highest tested dose | 65 | 31 | 
MSI-78 |  |  |  |  |  |  |  |  |  |  |  | 13
